The source of these data is patent US12569515B2, “Gold-containing agents for the treatment of lung infections” (Aurovir Pharma GmbH, priority 2020, dated 2026).

Series [1] concerns bovine coronavirus (BCoV). It is filed as cell-based.
Series [2] addresses SARS-CoV-2 spike protein / ACE2 receptor interaction (Severe acute respiratory syndrome coronavirus 2, UniProt P0DTC2). Briefly: Inhibition of the spike/ACE2 interaction by ELISA. The series is classed as binding. A general note: An ELISA detects its analyte on a solid surface through an enzyme-linked reagent.
Series [3] concerns the target T1, SARS-CoV-2 PLpro (Severe acute respiratory syndrome coronavirus 2, UniProt P0DTD1).
T1 construct: SARS-CoV-2 protease Papain-Like Protease (PLpro)
Briefly: Inhibition of SARS-CoV-2 protease PLpro (fluorogenic substrate Z-Arg-Leu-Arg-Gly-Gly-AMC). It is filed as biochemical. The note with it: 1 h preincubation at 37° C.; for the mixture with respect to the quantity of aurothioglucose.

In series [4] the test system is CaLu-3 cells. Briefly: Cytotoxicity in CaLu-3 cells (crystal violet, 24 hours). The series is classed as cell-based. Conditions: for Cytotoxicity in CaLu-3 cells: concentrations of up to 100 μM, combinations with respect to AM or AG. How it is done:
In order to determine the cytotoxicity, CaLu-3 cells were cultured in 96-well microtitre plates. The cell culture medium was replaced with fresh medium which contained the gold compounds in concentrations of 25, 50 or 100 μM and incubated for 24 hours at 37° C./5% CO2. Next, the remaining cells were photometrically determined using crystal violet stain (Victor X4 microplate reader). The quantity of cells in the treated samples was calculated as a percentage with respect to an untreated control.

Series [5] has as its target T1, SARS-CoV-2 PLpro. Nature of the series: Removal of zinc from PLpro (FluoZin-3 fluorescence). The series is classed as biochemical. The note with it: 50 μM test compound, 500 nM PLpro, up to 90 minutes (FIG. 10). As to the method: In addition to a cysteine in the catalytic centre of the enzyme, the protease Plpro contains further cysteines in a zinc binding domain which stabilise the structure and function of the enzyme. The removal of the bound zinc constitutes an interesting mechanism for the action of inhibitors for PLpro.
In order to establish whether the inhibitors are Zn-removing agents, the presence of the Zn^2+ cation in solution was determined as follows. The inhibitor compounds were prepared as stock solutions in DMSO, as stock solutions in water or DMSO and diluted one hundred-fold with HEPES buffer ([…], pH 7.5) to 100 μM concentrations. Volumes of 50 μL of SARSCoV-2 PLpro (Elabscience) in HEPES buffer or blank HEPES buffer (control for false positive results) were placed in the wells of a black 96-well microtitre plate (Nunclon, Nunc). Volumes of 50 μL of the inhibitor solutions or 1% DMSO in HEPES buffer (control) were added. […] The resulting solutions were mixed and the fluorescence emission was determined after 10 min, every 10 min over a period of 90 minutes, at 37° C. (λexc=485 nm, λem=535 nm); Victor X4 microtitre plate reader). The relative fluorescence was calculated by dividing the absolute fluorescence emission of the well which contained the inhibitor by the absolute fluorescence of the corresponding well which contained the enzyme but no inhibitor (control). […]

In series [6] the target is SARS-CoV-2 3CL protease (Mpro) (Severe acute respiratory syndrome coronavirus 2, UniProt P0DTD1). Briefly: Inhibition of SARS-CoV-2 protease 3CLpro. The series is classed as biochemical. Conditions: 1 h preincubation at 37° C.
Method: 50 μL of the test substance solutions or pure HEPES buffer (positive control) was respectively added thereto and the resulting solutions were mixed and incubated for one hour at 37° C.
Series [7] relates to mouse model for acute allergic asthma. Briefly: Anti-inflammatory action in a mouse model for acute allergic asthma, intranasal application.

As for `NC(=O)c1nc(F)c[nH]c1=O` [favipiravir], the “Viral load formed on adding favipiravir” value in series [1] was “reduction in the viral load”.

Take `CC(=O)N[C@@H](CS)C(=O)O` [N-acetylcysteine]: in series [2] (100 μM, N-acetylcysteine alone, read-out: Spike/ACE2 interaction remaining, % of control), the remaining activity at 100 µM is 97%.

As to `OC[C@H]1O[C@H]([S-])[C@H](O)[C@@H](O)[C@@H]1O.[Au+]` [aurothioglucose], the half-inhibitory concentration (IC50) in series [3] was found to be 7.03 µM; in series [6] it was 8.25 µM. The “Affinity for the spike protein of SARS-CoV-2 virus” value in series [2] is “high affinity”. In addition, the “Inhibition of the spike/ACE2 interaction” value in series [2] (20 μM aurothioglucose (FIG. 8)) was “resulted in an inhibition”. In series [4], the “Cytotoxicity in CaLu-3 cells” value is reported as “no relevant cytotoxicity”. The “Removal of zinc from PLpro” value in series [5] is listed as “comparable with the reference compound disulfiram”. Besides, the “Reduction in the viral load” value in series [1] (256 μM aurothioglucose, preincubated 1 h with 100 TCID50 BCoV, MDBK cells, 12-48 hours) stood at 10 fold.

Turning to `CC(=O)OC[C@H]1O[C@@H]([S-])[C@H](OC(C)=O)[C@@H](OC(C)=O)[C@@H]1OC(C)=O.CCP(CC)CC.[Au+]` [auranofin], the “Quantity of cells, % of the untreated control” value in series [4] (25 μM, CaLu-3 cells) is < 20 % of the untreated control.

On to `O=C(O)CC([S-])C(=O)O.[Au+]` (centres unmarked) [aurothiomalate], for which the IC50 stood at 0.6 µM in series [3] and 22.9 µM in series [6]. In addition, in series [4], the “Cytotoxicity in CaLu-3 cells” value is on record as “no relevant cytotoxicity”.

As to auroacetylcysteine, the “Total inflammatory cells in bronchial secretions, extent of respiratory tract inflammation, eosinophils and neutrophiles, inflammatory infiltrates in lung parenchyma” value in series [7] (10 mg/kg over 5 days) was “reduced”. For the same compound, the “Inflammatory parameters peribronchially and in the parenchyma” value in series [7] (10 mg/kg, histology) is “reduced”. The “Deaths in treatment group” value in series [7] (AAC group, 5 mice) was “one death”. Moreover, in series [7] (cell populations (FIG. 5)), the “Eosinophilic and neutrophilic granulocytes and lymphocytes” value is reported as “reduced”; the Macrophages result was “increased compared with dexamethasone”. For the same compound, the “Total cell count in bronchoalveolar lavage” value in series [7] (intranasal, compared with placebo and dexamethasone 1 mg/kg (FIG. 2)) is recorded as “comparable with dexamethasone”. Also, the “Anti-inflammatory effect in the tissue” value in series [7] (versus dexamethasone 1 mg/kg) is given as “comparable with that of dexamethasone”.

One may read the IC50 as the point on the concentration scale where inhibition reaches its midpoint.
